{
  "source": "patent US6200962A",
  "about": "“Thionophosphate derivatives, process for their preparation and pharmaceutical compositions containing them” (priority 1994, dated 2001)",
  "key": {"[1]": {"assay": "Lipid hydroperoxides in partially oxidized SUV liposomes", "settings": "5 mM, after 24 h", "experimental": "SUV liposomes were prepared from egg lecitin at 10% lipid concentration in a 50 ml HEPES buffer pH=6.9 according to already published procedures [Lichtenberg, D. and Barenholz. Y. (1988) Methods of Biochemical Analysis 33:337-462].\nLipid hydroperoxides were monitored by a modified micromolar sensitive spectroscopic method [Siddiqi, A. M. and Tappel, A. L. (1955) Chemist Analyst 44:52]. 50λ of lipids (liposomes or emulsion) were dissolved in 1 ml ethanol. 50λ of 50% potassium iodide solution were then added and the mixture was incubated for half an hour in the dark. The developed color was read in a spectrophotometer at 400 nm.\nSUV Liposomes (12.5 mM) with certain degrees of oxidation were incubated with 5 mM AMTP molecules for period of 24 h. Peroxidation number (PN) was measured with potassium iodide in ethanol. AMTPs were able to decompose lipid hvdroperoxide and to reduce the peroxidation number (PN)."}, "[2]": {"assay": "Toxicity study, i.p. injection", "type": "in vivo, Sabra mice", "settings": "mouse, in vivo, ip, single, Sabra mice", "experimental": "The toxicity of compound B was tested by injecting 75 mg/kg, 150 mg/kg, 300 mg/kg, 500 mg/kg, 700 mg/kg and 1000 mg/kg i.p. to groups of eight Sabra mice. In addition, a repetitive i.p. injection of 75 mg/kg/day over a period of two weeks was conducted on eight mice. The mice were monitored for mortality and for chances in their weight compared to a saline injected control group.\nThe toxicity of compound B was tested by injecting 75 mg/kg, 150 mg/kg, 300 mg/kg, 500 mg/kg, 700 mg/kg and 1000 mg/kg i.p. to groups of eight Sabra mice."}, "[3]": {"assay": "Scavenging of sodium hypochlorite followed by 31P NMR", "settings": "5 mM in water, 6 mM NaOCl, immediately after exposure", "experimental": "(§1) ROS reaction with AMTP were recorded by ^31 P NMR spectra. ^31 P spectra were referenced to 1% H3 PO4 in D2 O and used as an external standard.\nCompound B (5 mM in water) was introduced into 6 mM sodium hypochlorite."}, "Human neutrophils (PMNs)": {"system": "Human neutrophils (PMNs)", "assay": "Chemiluminescence of PMNs activated by cationized streptococci", "type": "cell-based", "experimental": "Human neutrophils (PMNs) were isolated from freshly drawn human blood according to already published procedures [Ginsburg et al., ibid.].\nChemiluminescence was measured in activated PMNs at 37° C. in a LUMAC/3M BIOCONTER M2010 connected to a linear recorder. PMNs (3*10^5 -2*10^6 /ml) were pipetted into plastic cuvettes, containing 1 ml HBSS, luminol (5*10^-5 M) and washed Streptococci 20 μl/ml (ten milliliters of a saline-washed suspension of group A Streptococci type 3 strain C203S of an optical density of 5.0 at 550 nm that was treated for 15 min at 37° C. with 100 μg/ml of poly L-histidine (PHSTD)HCL mol wt 23,000). The cationized suspension was then washed in normal saline and resuspended to the original volume. The cuvettes were mixed over a mechanical vortex and the chemiluminescence was immediately monitored until the peak CL was reached.\nModulation of chemiluminescence response was achieved by employing AMTP (compound B) molecules in various concentrations.\nTwo experiments were done. In the first experiment with 3-4*10^5 cells/ml, a concentration of less than 1 mM of compound B was required to quench 90% of light production. Control 1 in FIG. 13 represents neutrophils treated with streptococcus alone (14,000-17,000 light units at the peak), Spontaneous light production measurements were 1,400-2,000 light CPM. In the second experiment Control 2 represents 1.5*10^6 cells per 1 ml HBSS activation of the cells by cationized streptococcus produced between 50,000-63,000 light units at the peak. 8 mM of compound B reduced the light measurements to the base level of 3500 light units."}, "Human skin fibroblasts": {"system": "Human skin fibroblasts", "assay": "Chromium release from fibroblasts, killing by streptolysin S and glucose oxidase", "type": "cell-based", "experimental": "Human skin fibroblasts were kindly supplied by the Department for Human Genetics at Hadassa Hospital in Jerusalem. The cells were grown in D-MEM medium supplemented with glutamine, penicillin, and streptomycin and 10% fetal calf serum [Ginsburg, I. et al. (1992) Inflammation 16:519-538]. Radiolabeled cell monolayers were prepared by the addition of 10 μCi/ml of [^51 Cr]NaCrO4 (New England Nuclear) to […] of trypsinized cells grown in 75-ml tissue culture bottles. The cells were then dispensed into 24-well tissue culture plates (Nunc, Roskilde, Denmark) and grown to confluency in a CO2 incubator.\nHydrogen peroxide flux was generated by the addition of glucose oxidase (0.5 units/ml) to the tissue culture media. Streptolysin S (SLS) of Croup A Streptococci (17 hemolytic units/ml) was employed as a membrane damaging agent.\nCulture monolayers were treated for 1 h with the agents listed above. The cultures were monitored periodically for changes in cell morphology. To assess cytotoxicity, the supernatant fluids were removed and centrifuged at 2000 rpm for 2 min. The solubilized radioactivity was then determined in a Contron gamma counter. The total radioactivity associated with untreated controls was solubilized by the addition of 1 ml of 1% Triton X-100. (AMTPs influence on SLS hemolytic activity and on glucose oxidase activity was also tested. No influences were observed).\nFibroblasts in culture were exposed to a synergistic killing mechanism (streptolysin S in combination with an oxidant glucose oxidase) in a D-MEM culture medium that contained 1 mg/ml of glucose (about 0.5-1 mM of H2 O2 was produced after 1 hour of incubation at 37° C.). This system caused about 60% chromium released within an hour. […] The positive controls were DMTU and catalase."}, "[4]": {"assay": "Reaction with hydrogen peroxide followed by 31P NMR", "experimental": "as §1\nTwo products of oxidation were observed by ^31 P NMR (FIG. 4). One product at 9.106 ppm and the other at -3.556 ppm. The second product indicated another fragmentation in the molecule.\nDifferent reaction rates were recorded by NMR kinetics between hydrogen peroxide and compound B either in a more hydrophilic environment and in a more hydrophobic one (different mixtures of 1,4-dioxane and water) with dielectric constants of 72.63 and 9.58 respectively."}, "[5]": {"assay": "Superoxide radical assay (xanthine/xanthine oxidase, cyt C reduction)", "experimental": "Superoxide radicals were produced from reactions of xanthine/xanthine oxidase [Mccord, J. M. and Fridovich I. (1969) J. Biol. Chem. 244:6049-6055]. The enzyme unit was adjusted to produce a linear flux of superoxide radicals which gave a slope of 0.12 OD/min at 550 nm. by reduction of cyt-C.\nSuperoxide radicals were produced by the xanthine/xanthine oxidase system, and the prevention of cyt C reduction by compound B was measured (FIG. 8). […] The spontaneous second order reaction rate constant of superoxide with compound B was calculated from the initial slope to be 8.1*10^2 M^-1 S^-1."}},
  "data": [
    {"smiles": "CCOP(=S)(NCCO)OCC", "note": "[Compound B, 2-hydroxyamido diethyithionophosphate]", "values": [
      {"measurement": "reduction of PN, comparative", "setting": "[1]", "result": "more effective in reducing PN"},
      {"measurement": "LD50 at 720 h", "setting": "[2]", "result": "~700", "unit": "mg/kg"},
      {"measurement": "oxidation by sodium hypochlorite", "setting": "[3]", "result": "complete oxidation of the sulfur group"},
      {"measurement": "light production at 8 mM", "setting": "Human neutrophils (PMNs); 8 mM, 1.5*10^6 cells/ml, control 50,000-63,000", "result": 3500, "unit": "light units"},
      {"measurement": "IC90", "setting": "Human neutrophils (PMNs); Homo sapiens, Neutrophil, 3-4*10^5 cells/ml, read-out: concentration required to quench 90% of light production", "result": "< 1000", "unit": "µM"},
      {"measurement": "reduction of light emission", "setting": "Human neutrophils (PMNs); various concentrations", "result": "dose dependent reduction of light emission"},
      {"measurement": "prevention of cell damage, comparative", "setting": "Human skin fibroblasts", "result": "much more efficient than compound C"},
      {"measurement": "toxic effects on the cell", "setting": "Human skin fibroblasts; concentrations of up to 20 mM, compound alone", "result": "did not show any toxic effects"},
      {"measurement": "protection against cell killing", "setting": "Human skin fibroblasts; concentrations up to 10 mM, 60 min", "result": "50-60%"},
      {"measurement": "decomposition by H2O2", "setting": "[4]; 5 mM compound, 100 mM H2O2", "result": "decomposed by H2 O2"},
      {"measurement": "reaction rate with hydrogen peroxide vs dielectric constant", "setting": "[4]; 1,4-dioxane/water mixtures, dielectric constants 72.63 and 9.58", "result": "much faster in high dielectric constants"},
      {"measurement": "reduction of cyt C by compound itself", "setting": "[5]", "result": "did not reduce cyt C"},
      {"measurement": "second order reaction rate constant with superoxide", "setting": "[5]; calculated from the initial slope", "result": "8.1*10^2 M^-1 S^-1"}
    ]}
  ]
}
